Experimental data taken from patent publication US20040053852A1, “Preventing desensitization of receptors” (priority 2001, published 2004).

Key:
heart muscle = experiment: Ratio of heart weight to body weight after 1 week continuous infusion; format: in vivo; details: mice, FIG. 1
Protocol: Mice were treated with 10/ng/kg/day of GSNO, or with PBS (control) or with isoproterenol (at a dosage of 30 mg/kg/day) or with 10 mg/kg/day of GSNO plus 30 mg/kg/day isoproterenol, infused continuously for 1 week. The animals were sacrificed and the hearts were weighed and a ratio of heart weight to body weight was determined for each case. The results are set forth in FIG. 1 where hw:bw, i.e., the legend on the vertical axis, is the ratio of heart weight to total body weight and “ISO” means isoproterenol. […] The increase in size of heart (hypertrophy) is an advantage especially in the case of a patient on a left ventricular heart assist device awaiting heart transplant and in the case of a patient who has had heart surgery and cannot be disconnected from a heart pump without loss of heart function. The asterisks in FIG. 1 mean […] compared to control.

[1] = Patient with class 4 congestive heart failure (Example I); format: in vivo, human
Protocol: A person with class 4 congestive heart failure enters the hospital with shortness of breath and bradyacardia. […] The patient is subsequently switched to IV dobutamine at 10 μg per kg per minute titrated to cardiac output. Over the following three days the drug is increased to 30 μg per kg per minute to maintain cardiac output. […] The patient undergoes bypass surgery and does well even though they have been viewed as at high risk.

GRK = GRK phosphorylation of a synthetic peptide substrate with 32P-ATP (isolated system); format: biochemical; details: 500 μM, 50 μM, 5 μm, FIG. 3
Protocol: An isolated system was provided consisting of medium, GRK, standard synthetic peptide substrate and radiolabeled ^32P-adenosine triphosphate, i.e., ^32P-ATP, as a source of phosphate. Runs were carried out on the system without additives, and with 500 μM glutathione (GSH) present and with GSNO (500 μM) present or with GSNO (50 μM) present or with GSNO (5 μm) present. The amount of bound ^32P was measured in counts per minute (CPM).

[2] = Heroine addict, dose tapering, withdrawal symptoms (Example V); format: in vivo, human; details: ethyl nitrite intravenously 2 nmol per kg per minute
Text: A heroine addict enters a clinic where their dose is tapered gradually. In order to avoid symptoms of withdrawal, ethyl nitrite is started intravenously at 2 nmol per kg per minute and symptoms of withdrawal, including sweats and shaking, are ameliorated.

β-adrenergic receptor = experiment: Saturation binding with radiolabeled I125-cyanopindolol in purified cardiac membrane of treated mice; format: in vivo; details: GSNO 10 ng/kg/day plus isoproterenol 30 mg/kg/day for 7 days
Protocol: Mice were treated with 10 ng/kg/day of GSNO or PBS infused continuously for 1 week through an azlet miniosmotic pump placed subcutaneously. Another set of mice was treated for 7 days with isoproterenol (30 mg/kg/day), and the fourth and final group received for 7 days, isoproterenol (30 mg/kg/day) plus GSNO (10 ng/kg/day). The mice were sacrificed and heart tissue was removed.

[3] = Patient with metastatic prostate cancer, bone pain unresponsive to opiates (Example IV); format: in vivo, human; details: intravenous GSNO 10 nmol per kg per minute in conjunction with morphine
Text: A person with metastatic prostate cancer is suffering from severe bone pain unresponsive to opiates.

[4] = Patient with cystic fibrosis, shortness of breath (Example VI); format: in vivo, human; details: inhaled GSNO 3 cc of a 10 mM solution, pH 7, 4×/day
Protocol: A person with cystic fibrosis enters the hospital complaining of shortness of breath. […] They are started on inhaled GSNO (3 cc of a 10 mM solution, pH 7, 4×/day).

In the case of `CC(C)NCC(O)c1ccc(O)c(O)c1` (stereo not shown) [isoproterenol, reference compound], the “size of heart muscle (hw:bw, ratio of heart weight to total body weight)” value (heart muscle; isoproterenol 30 mg/kg/day infused continuously 1 week) is reported as “increased the size of the heart muscle” and the “symptoms (shortness of breath, bradyacardia)” value ([1]; intravenous isoproterenol 10 μg per minute) is reported as “resolution of symptoms”.
With `N[C@@H](CSN=O)C(=O)O` [S-nitroso-cysteine] the “incorporation of 32P into synthetic peptide substrate (bound 32P, CPM)” value (GRK) was “same result of GRK inhibition and interference with substrate phosphorylation”.
With `CCON=O` [ethyl nitrite] the symptoms of withdrawal [2] was “ameliorated”.
For `N[C@@H](CCC(=O)N[C@@H](CSN=O)C(=O)NCC(=O)O)C(=O)O` [GSNO, S-nitrosoglutathione], the “amount of β-adrenergic receptor” value (β-adrenergic receptor) was 90 fmol per mg protein, the “size of heart muscle (hw:bw, ratio of heart weight to total body weight)” value (heart muscle; 10 mg/kg/day of GSNO plus 30 mg/kg/day isoproterenol infused continuously 1 week) was “even more effect in increasing size of heart muscle” and the “size of heart muscle (hw:bw, ratio of heart weight to total body weight)” value (heart muscle; GSNO 10/ng/kg/day infused continuously 1 week) was “increases the size of the heart muscle”. For the same compound, the “incorporation of 32P into synthetic peptide substrate (bound 32P, CPM)” value (GRK) was “concentration dependent reduction in incorporation of ^32P”, the cardiac output ([1]; IV GSNO 2 nmol per kg per minute, on dobutamine 30 μg per kg per minute) was “cardiac output improved over the following 24 hours” and the bone pain [3] was “now relieves their pain”. For the same compound, the “FEV1, acute change” value [4] was “does not change acutely”, the “FEV1 over the following 48 hours” value [4] was “corresponding improvement in FEV1” and the “symptoms of shortness of breath” value ([4]; following 48 hours) was “resolve over the following 48 hours”.
